{
  "source": "patent US20060104981A1",
  "about": "“Prophylactic/therapeutic agent for cancer” (priority 2002, published 2006)",
  "assay_type_in_all_cases": "cell-based",
  "key": {"[1]": {"system": "EZH2 (RNA) in colon cell line HCT116", "experiment": "EZH2 (RNA) expression by quantitative PCR after siRNA transfection", "conditions": "36 hours after transfection, siRNA 45 nM", "description": "(§1) RNA Duplexes for the base sequence represented by SEQ ID NO: 3 (hereinafter briefly referred to as siRNA) were designed (SEQ ID NO: 11 and SEQ ID NO: 12) and provided for the transfection experiment using the synthetic duplexes (Qiagen, Inc.). For control siRNAs, commercially available Control (non-silencing) siRNAs (SEQ ID NO: 13 and SEQ ID NO: 14) (manufactured by Qiagen, Inc.) were used.\n(§2) Colon cell line HCT116 (purchased from ATCC) and lung cancer cell line NCI-H1299 (purchased from ATCC) were used as the test cells used for the following test. Forty-eight hours before transfection of siRNAs, 5×10^5 cells were plated on a 24-well plate (manufactured by Falcon Co., Ltd.). In transfection of these siRNAs, Lipofectamine 2000 (manufactured by Invitrogen Corp.) was used in accordance with its protocol. The final concentration of siRNAs was set at 45 nM. RNA was extracted 36 hours after the transfection, following the protocol of RNeasy Mini Kit (manufactured by Qiagen, Inc.) and cDNA was prepared using TaqMan Reverse Transcription Reagents (manufactured by Applied Biosystems, Inc.). Quantitative PCR was performed on ABI PRISM™ 7900HT Sequence Detector (manufactured by Applied Biosystems, Inc.), using two primers (SEQ ID NO: 6 and SEQ ID NO: 7) and a probe (SEQ ID NO: 8), as in EXAMPLE 4."}, "[2]": {"system": "EZH2 (RNA) in lung cancer cell line NCI-H1299", "experiment": "EZH2 (RNA) expression by quantitative PCR after siRNA transfection", "conditions": "36 hours after transfection, siRNA 45 nM", "description": "as §1, §2"}, "colon cell line HCT116": {"system": "colon cell line HCT116", "experiment": "Apoptosis (caspase 3/7 activity, Caspase Glo-3/7 assay) after siRNA transfection", "conditions": "day 3 after transfection", "protocol": "as §1\n(§3) Meanwhile, 1×10^3 cells were seeded on a 96-well plate (manufactured by Falcon Co., Ltd.) to assess the effect on apoptosis. Forty-eight hours later, siRNA or control siRNA to EZH2 was transfected using Lipofectamine 2000 (manufactured by Invitrogen Corp.) as described above. On day 3 after the siRNA transfection, the caspase 3/7 activity as an indicator of apoptosis was compared by the Caspase Glo-3/7 assay (manufactured by Promega Corp.)."}, "[3]": {"system": "lung cancer cell line NCI-H1299", "experiment": "Apoptosis (caspase 3/7 activity, Caspase Glo-3/7 assay) after siRNA transfection", "conditions": "day 3 after transfection", "protocol": "as §1, §3"}},
  "data": [
    {"substance": "siRNA to EZH2: RNA duplexes for the base sequence of SEQ ID NO: 3; antisense strand SEQ ID NO: 11, sense strand SEQ ID NO: 12 (antisense AAGUUGAACAGAAAGCUGCTT; sense GCAGCUUUCUGUUCAACUUTT; RNA duplexes, chemistry of the tt overhangs not given here)", "values": [
      {"measurement": "expression of EZH2 (RNA) as compared to control siRNA (100%)", "setting": "[1]", "value": 50, "unit": "%"},
      {"measurement": "expression of EZH2 (RNA) as compared to control siRNA (100%)", "setting": "[2]", "value": 13, "unit": "%"},
      {"measurement": "apoptosis as compared to the control (100%)", "setting": "colon cell line HCT116", "value": 185, "unit": "%"},
      {"measurement": "apoptosis as compared to the control (100%)", "setting": "[3]", "value": 143, "unit": "%"}
    ]}
  ]
}
